PMC6291527, “A Nanostructured Lipid System to Improve the Oral Bioavailability of Ruthenium(II) Complexes for the Treatment of Infections Caused by Mycobacterium tuberculosis” (Frontiers in Microbiology, 2018)
Converted amounts (≈) assume the structure as drawn.

Columns and labels:
Assay in all cases: microbe, parasite or virus in culture
Type in all cases: cell-based, Mycobacterium tuberculosis
[1] = tested on: M. tuberculosis clinical isolate CF158; conditions: for MIC90: Mycobacterium tuberculosis, read-out: MIC90 of the Compounds, isolate CF158; for MIC90 of the Compounds, isolate CF158: REMA, CF158 resistant to INH and RIF, NL = not loaded (DMSO), L = loaded into NLS
[2] = tested on: M. tuberculosis clinical isolate CF169; conditions: for MIC90: Mycobacterium tuberculosis, read-out: MIC90 of the Compounds, isolate CF169; for MIC90 of the Compounds, isolate CF169: REMA, CF169 resistant to INH and RIF, NL = not loaded (DMSO), L = loaded into NLS
[3] = tested on: M. tuberculosis clinical isolate CF100; conditions: for MIC90: Mycobacterium tuberculosis, read-out: MIC90 of the Compounds, isolate CF100; for MIC90 of the Compounds, isolate CF100: REMA, CF100 resistant to INH, NL = not loaded (DMSO), L = loaded into NLS

Molecule | MIC90 [1] [µg/mL] | MIC90 [2] [µg/mL] | MIC90 [3] [µg/mL] | MIC90 of the Compounds, isolate CF158 [1] | MIC90 of the Compounds, isolate CF169 [2] | MIC90 of the Compounds, isolate CF100 [3]
COc1c(N2CCNC(C)C2)c(F)cc2c(=O)c(C(=O)O)cn(C3CC3)c12 (stereo not shown) [GAT, gatifloxacin] | 0.2 (≈ 0.533 µM) | 1.2 (≈ 3.2 µM) | 0.5 (≈ 1.33 µM) |  |  | 
[Ru(pic)(dppe)(phen)]PF6 [SCAR7] |  |  |  | 3.0 µg/mL | 4.4 µg/mL | 7.3^∗ μg mL^-1
NC[C@@H]1O[C@@H](O[C@H]2[C@H](O)[C@@H](O[C@H]3O[C@H](CO)[C@@H](O)[C@H](N)[C@H]3O)[C@H](N)C[C@@H]2N)[C@@H](O)[C@H](O)[C@H]1O [KAN] |  |  |  | 2.8 µg/mL | 1.5 µg/mL | 7.8 µg/mL
NCC[C@H](O)C(=O)N[C@@H]1C[C@H](N)[C@@H](O[C@H]2O[C@H](CN)[C@@H](O)[C@H](O)[C@H]2O)[C@H](O)[C@H]1O[C@H]1O[C@H](CO)[C@@H](O)[C@H](N)[C@H]1O [AMI, amikacin] | 0.6 (≈ 1.02 µM) | 0.6 (≈ 1.02 µM) | 0.7 (≈ 1.2 µM) |  |  | 
[Ru(pic)(dppb)(bipy)]PF6 [SCAR1] |  |  |  | 2.6^∗ μg mL^-1 | 2.9^∗ μg mL^-1 | 10.9 µg/mL
CO[C@H]1/C=C/O[C@@]2(C)Oc3c(C)c(O)c4c(O)c(c(/C=N/N5CCN(C)CC5)c(O)c4c3C2=O)NC(=O)/C(C)=C\C=C\[C@H](C)[C@H](O)[C@@H](C)[C@@H](O)[C@@H](C)[C@H](OC(C)=O)[C@@H]1C [RIF, rifampicin] | > 50 | > 50 | < 0.195 | >50 µg/mL | >50 µg/mL | 
[Ru(pic)(dppb)(phen)]PF6 [SCAR4] |  |  |  | 2.7 µg/mL | 3.0 µg/mL | 5.4 µg/mL
Cc1ccnc(-c2cc(C)ccn2)c1.F[P-](F)(F)(F)(F)F.O=C([O-])c1ccccn1.[Ru+2].c1ccc(P(CCCCP(c2ccccc2)c2ccccc2)c2ccccc2)cc1 [SCAR2, [Ru(pic)(dppb)(Me-bipy)]PF6] |  |  |  | 1.6^∗ μg mL^-1 | 2.6^∗ μg mL^-1 | 5.7 µg/mL
F[P-](F)(F)(F)(F)F.O=C([O-])c1ccccn1.[Ru+2].c1ccc(P(CCP(c2ccccc2)c2ccccc2)c2ccccc2)cc1.c1ccc(P(CCP(c2ccccc2)c2ccccc2)c2ccccc2)cc1 [SCAR5, cis-[Ru(pic)(dppe)2]PF6] |  |  |  | 2.9^∗ μg mL^-1 | 2.9^∗ μg mL^-1 | 5.1 µg/mL
NNC(=O)c1ccncc1 [INH, isoniazid] | > 50 | > 50 | > 50 | >50 µg/mL |  | >50 µg/mL
CC1COc2c(N3CCN(C)CC3)c(F)cc3c(=O)c(C(=O)O)cn1c23 (stereo not shown) [OFL, ofloxacin] | 0.7 (≈ 1.94 µM) | 11.5 (≈ 31.8 µM) | 0.9 (≈ 2.49 µM) |  |  | 
